Values joined by “and” are separate entries in the source; they are usually repeats but may differ in a detail not shown here. Equal entries are not always repeated.
How the values were obtained:
GPR139 [1] = target: T1, GPR139 (Homo sapiens, UniProt Q6DWJ6); experiment: Ca2+ mobilization assay, agonist mode, stable GPR139-CHOk1 cell line; assay type: cell-based
T1 sequence (Q6DWJ6 1-353): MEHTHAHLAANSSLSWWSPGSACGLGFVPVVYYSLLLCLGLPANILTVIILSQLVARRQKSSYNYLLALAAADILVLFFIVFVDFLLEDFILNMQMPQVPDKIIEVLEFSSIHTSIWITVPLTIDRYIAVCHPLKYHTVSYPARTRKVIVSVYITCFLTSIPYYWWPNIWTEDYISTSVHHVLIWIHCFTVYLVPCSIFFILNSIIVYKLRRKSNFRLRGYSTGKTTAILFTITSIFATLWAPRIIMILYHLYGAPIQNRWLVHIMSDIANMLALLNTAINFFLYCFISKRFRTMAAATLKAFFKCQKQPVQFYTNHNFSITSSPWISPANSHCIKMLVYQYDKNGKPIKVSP
Outline: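 Agonist activity of compounds is assessed in stably transfected CHO-K1 cells using the calcium dye Fluo-4 at 37 °C in HEPES-buffered HBSS (pH 7.4). Efficacy is expressed relative to the reference agonist Lundbeck Cmp 1a, set as 100%.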

GPR139 [2] = target: T1, GPR139; experiment: Inositol monophosphate (IP1) accumulation assay, GPR139-CHOk1; assay type: cell-based; conditions: for IP1 response (% of Cmp 1a): replicate experiments
Method: Primary screening and pharmacological characterization of compounds were performed using a CHO-K1 cell line that stably expresses human GPR139 (GPR139-CHOk1). The GPR139-CHOk1 cell line was kindly provided by H. Lundbeck A/S, Denmark[24]. GPR139-CHOk1 cells were grown in Ham’s F-12 Kaighn’s Modification Medium (ThermoFisher #21127030) supplemented with 10% dialyzed fetal bovine serum (US origin, ThermoFisher #26400044), 100 units/mL Penicillin-Streptomycin (ThermoFisher #15140122), and 1 mg/mL Geneticin (ThermoFisher #11811031). […] M1R-CHOk1 cells were purchased from The Missouri S&T cDNA Resource Center (#CEM100TN00). M1R-CHOk1 cells were grown in Ham’s F12 Medium (ThermoFisher #21765029) supplemented with 10% fetal bovine serum (Brazilian origin, ThermoFisher #10270106), 100 units/mL Penicillin-Streptomycin, and 0.25 mg/mL Geneticin. HEK293A cells transiently transfected with GPR139 were used for additional pharmacological assessment of signaling pathways activated by GPR139. HEK239A cells were generously provided by Dr. Asuka Inoue, Tohoku University, Japan. HEK293A cells were grown in Dulbecco’s Modified Eagle Medium (ThermoFisher #31966047) supplemented with 10% dialyzed fetal bovine serum and 100 units/mL Penicillin-Streptomycin. Cell lines were maintained at 37 °C in humidified incubator equilibrated with 5% CO2.
HTRF IP-One Gq kit (Cisbio #62IPAPEC) was used to detect the accumulation of inositol monophosphate (IP1) as described in the work by Shehata et al.[26]. GPR139-CHOk1 cells were dissociated and resuspended in HEPES buffer. 50,000 cells in 5 µL and 5 µL test compounds diluted from DMSO stocks (final DMSO concentration of maximally 0.3%) in HEPES buffer supplemented with 40 mM LiCl were mixed in each well of white 384-well OptiPlate (PerkinElmer #6007290). The cells were incubated for 1 h at 37 °C. Then, 10 µL detection reagent composed of 2.5% Eu3 + -anti-IP1 antibody and 2.5% IP1-d2 diluted in lysis buffer was added, and the cells were incubated for 1 h at room temperature before measurements. Measurements were performed on EnVision Multimode Plate Reader (PerkinElmer) using excitation light of 340 nm and emission light of 615 nm and 665 nm. The time resolved-fluorescence resonance energy transfer (TR-FRET) 665 nm/615 nm ratio, which is inversely proportional to the IP1 accumulation, was used to determine the IP1 response.
Pharmacological data and statistical analyses were performed in GraphPad Prism v9–10 (Graphpad Software Inc., San Diego, CA), which are also specifically described in the figure and table legends. The functional assay responses were normalized to buffer (0%) and Lundbeck Cmp 1a or JNJ-63533054 (100%), for Ca^2+ and IP1 experiments in the GPR139-CHOk1 stable cell line or Ca^2+, G protein activation, and arrestin-3 recruitment experiments in the HEK293A cells transiently transfected with GPR139, respectively. Data are from at least three independent experiments, unless stated otherwise. Concentration-response curves were fitted applying non-linear regression using the log (agonist) versus response model with variable slope. ANOVA was applied for comparing results and determining statistical significance. Comparison of responses to the reference was performed using one-way ANOVA with Dunnett’s multiple comparisons test at significance threshold of p < 0.05. Comparison of responses across assays and ligands was performed using two-way ANOVA with Tukey’s multiple comparisons test at a significance threshold of p < 0.05.

[3] = tested on: patients with schizophrenia and major depressive disorder; conditions: cited from earlier work

In the case of `C[C@H](NC(=O)Cn1nnc2ccccc2c1=O)c1ccc(OC(F)(F)F)cc1` [TAK-041, reference compound], the “Ca2+ signal (% of Cmp 1a)” value (GPR139 [1]; log [Compound] M -5.5, replicate experiments) is reported as 99 % of Cmp 1a and 95 % of Cmp 1a and 92 % of Cmp 1a, the “Ca2+ signal (% of Cmp 1a)” value (GPR139 [1]; log [Compound] M -6.0, replicate experiments) is reported as 80 % of Cmp 1a and 94 % of Cmp 1a and 83 % of Cmp 1a and the “Ca2+ signal (% of Cmp 1a)” value (GPR139 [1]; log [Compound] M -6.5, replicate experiments) is reported as 83 % of Cmp 1a and 80 % of Cmp 1a (2×). For the same compound, the “Ca2+ signal (% of Cmp 1a)” value (GPR139 [1]; log [Compound] M -7.0, replicate experiments) was 63 % of Cmp 1a and 62 % of Cmp 1a (2×), the “Ca2+ signal (% of Cmp 1a)” value (GPR139 [1]; log [Compound] M -7.5, replicate experiments) was 35 % of Cmp 1a and 36 % of Cmp 1a and 41 % of Cmp 1a and the “Ca2+ signal (% of Cmp 1a)” value (GPR139 [1]; log [Compound] M -8.0, replicate experiments) was 16 % of Cmp 1a and 11 % of Cmp 1a and 17 % of Cmp 1a. The “Ca2+ signal (% of Cmp 1a)” value (GPR139 [1]; log [Compound] M -8.5, replicate experiments) was 0 % of Cmp 1a, the “Ca2+ signal (% of Cmp 1a)” value (GPR139 [1]; log [Compound] M -9.0, replicate experiments) was 0 % of Cmp 1a and the “Ca2+ signal (% of Cmp 1a)” value (GPR139 [1]; log [Compound] M = -5.5, individual replicate columns) was 99 % of Cmp 1a and 95 % of Cmp 1a and 92 % of Cmp 1a. For the same compound, the “Ca2+ signal (% of Cmp 1a)” value (GPR139 [1]; log [Compound] M = -6.0, individual replicate columns) was 80 % of Cmp 1a and 94 % of Cmp 1a and 83 % of Cmp 1a, the “Ca2+ signal (% of Cmp 1a)” value (GPR139 [1]; log [Compound] M = -6.5, individual replicate columns) was 83 % of Cmp 1a and 80 % of Cmp 1a (2×) and the “Ca2+ signal (% of Cmp 1a)” value (GPR139 [1]; log [Compound] M = -7.0, individual replicate columns) was 63 % of Cmp 1a and 62 % of Cmp 1a (2×). The “Ca2+ signal (% of Cmp 1a)” value (GPR139 [1]; log [Compound] M = -7.5, individual replicate columns) was 35 % of Cmp 1a and 36 % of Cmp 1a and 41 % of Cmp 1a, the “Ca2+ signal (% of Cmp 1a)” value (GPR139 [1]; log [Compound] M = -8.0, individual replicate columns) was 16 % of Cmp 1a and 11 % of Cmp 1a and 17 % of Cmp 1a and the “Ca2+ signal (% of Cmp 1a)” value (GPR139 [1]; log [Compound] M = -8.5, individual replicate columns) was 0 % of Cmp 1a. For the same compound, the “Ca2+ signal (% of Cmp 1a)” value (GPR139 [1]; log [Compound] M = -9.0, individual replicate columns) was 0 % of Cmp 1a, the Emax (GPR139 [1]; read-out: Emax (%), Ca2+ mobilization) was 100 ± 3% and the Emax (GPR139 [2]; Supplementary Table 4, normalized to Lundbeck Cmp 1a, read-out: Emax (%), IP1 accumulation) was 101 ± 9%. The “IP1 response (% of Cmp 1a)” value (GPR139 [2]; log [Compound] M -4.5) was 112 % of Cmp 1a and 93 % of Cmp 1a and 83 % of Cmp 1a and 114 % of Cmp 1a, the “IP1 response (% of Cmp 1a)” value (GPR139 [2]; log [Compound] M -5.0) was 115 % of Cmp 1a and 78 % of Cmp 1a and 92 % of Cmp 1a and 118 % of Cmp 1a and the “IP1 response (% of Cmp 1a)” value (GPR139 [2]; log [Compound] M -5.5) was 87 % of Cmp 1a and 81 % of Cmp 1a and 75 % of Cmp 1a and 93 % of Cmp 1a. For the same compound, the “IP1 response (% of Cmp 1a)” value (GPR139 [2]; log [Compound] M -6.0) was 84 % of Cmp 1a and 66 % of Cmp 1a and 75 % of Cmp 1a and 94 % of Cmp 1a, the “IP1 response (% of Cmp 1a)” value (GPR139 [2]; log [Compound] M -6.5) was 86 % of Cmp 1a and 56 % of Cmp 1a and 45 % of Cmp 1a and 98 % of Cmp 1a and the “IP1 response (% of Cmp 1a)” value (GPR139 [2]; log [Compound] M -7.0) was 63 % of Cmp 1a (2×) and 41 % of Cmp 1a and 62 % of Cmp 1a. For the same compound, the “IP1 response (% of Cmp 1a)” value (GPR139 [2]; log [Compound] M -7.5) was 51 % of Cmp 1a and 26 % of Cmp 1a and 33 % of Cmp 1a and 49 % of Cmp 1a, the “IP1 response (% of Cmp 1a)” value (GPR139 [2]; log [Compound] M -8.0) was 28 % of Cmp 1a and -3.49 % of Cmp 1a and 8 % of Cmp 1a and 21 % of Cmp 1a and the “outcome of phase II trials” value ([3]; anhedonia in schizophrenia and major depressive disorder) was “did not meet the primary endpoints”. For the same compound, the safety and tolerability [3] was “good safety profile and was well tolerated”.

— paper PMC12775434, “Ultra-large virtual screening unveils potent agonists of the neuromodulatory orphan receptor GPR139” (Nature Communications, 2025)
